Measurements reported in patent publication US4663326A, “Pyrazolo[4,3-d]pyrimidine-5,7-(4H,6H)dione or -5-thione-7-one analogs” (Warner-Lambert Company, priority 1985, dated 1987).
Where “and” joins values, the source holds several entries; their conditions need not be identical. Equal entries are not always repeated.

The compounds below were run against T1, adenosine receptors (designated A1) (Rattus norvegicus, UniProt P25099) (assay: Adenosine receptor binding - A1 receptor affinity (RBA1), [3H]-CHA displacement, rat whole brain minus cerebellum and brainstem membranes). Conditions: 1.0 nM [3H]-CHA, 25° C., pH 7.7; repeat tests (Test 1-4) one line each; read-out: RBA-1 (IC50, adenosine A1 affinity).
T1 construct: Whole brain minus cerebellum and brainstem from male Long Evans rats (150-200 g); from tissue; host or cells: whole brain minus cerebellum and brainstem, male Long Evans rats, membranes
T1 sequence (P25099 1-326): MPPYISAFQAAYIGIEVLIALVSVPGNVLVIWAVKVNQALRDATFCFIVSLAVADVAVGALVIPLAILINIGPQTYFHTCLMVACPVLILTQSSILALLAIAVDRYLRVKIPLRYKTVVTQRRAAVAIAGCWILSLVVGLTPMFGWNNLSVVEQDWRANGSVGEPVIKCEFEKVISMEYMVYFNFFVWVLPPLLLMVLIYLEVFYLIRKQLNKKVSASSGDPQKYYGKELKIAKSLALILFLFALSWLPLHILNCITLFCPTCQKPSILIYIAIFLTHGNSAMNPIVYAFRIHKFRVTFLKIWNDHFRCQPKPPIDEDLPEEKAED
Set-up: species or system rat (male Long Evans)
Procedure: ADENOSINE RECEPTOR BINDING-A1 RECEPTOR AFFINITY (RBA1)
Whole brain minus cerebellum and brainstem from male Long Evans rats (150-200 g) was homogenized in 30 volumes of ice-cold 0.05M Tris-HCl buffer pH 7.7 using a Brinkman Polytron PT-10, (setting number 6 for 20 seconds) and centrifuged for ten minutes at 20,000×g (Sorvall RC-2), 4° C. The supernatant was discarded, and the pellet was resuspended and centrifuged as before. The pellet was resuspended in 20 ml Tris-HCl buffer containing two International Units/ml of adenosine deaminase (Sigma type III from calf intestinal mucosa), incubated at 37° C. for 30 minutes, then subsequently at 0° C. for ten minutes. The homogenate was again centrifuged, and the final pellet was resuspended in ice-cold 0.05M Tris-HCl buffer pH 7.7 to a concentration of 20 mg/ml original wet tissue weight and used immediately.
Tissue homogenate (10 mg/ml) was incubated in 0.05M Tris-HCl buffer pH 7.7 containing 1.0 nM [^3 H]-N^6 -cyclohexyladenosine (^3 H]-CHA) with or without test agents in triplicate for one hour at 25° C. Incubation volume was 2 ml. Unbound [^3 H]-CHA was separated by rapid filtration under reduced pressure through Whatman glass fiber (GF/B) filters. The filters were rinsed three times with 5 ml of ice cold 0.05M Tris-HCl buffer pH 7.7. The radio-labeled ligand retained on the filter was measured by liquid scintillation spectrophotometry after shaking the filters for one hour or longer on a mechanical shaker in 10 ml of Beckman Ready-Solv HP scintillation cocktail.
Nonspecific binding was defined as the binding which occurred in the presence of 1 mM theophylline. The concentration of test agent which inhibited 50% of the specific binding (IC50) was determined by nonlinear computer curve fit. The Scatchard plot was calculated by linear regression of the line obtained by plotting the amount of radioligand bound ([…]) versus [bound radioligand/free radioligand].Since the amount of radioligand bound was a small fraction of the total amount added, free radioligand was defined as the concentration (nM) of radioligand added to the incubation mixture. The Hill coefficient was calculated by linear regression of the line obtained by plotting the log of the bound radioligand vs the log of the [bound radioligand/(Bmax -bound radioligand)]. The maximal number of binding sites (Bmax) was calculated from the Scatchard plot.

Compound | IC50
CCn1nc(C)c2[nH]c(=O)[nH]c(=O)c21 [Example 3, 1-Ethyl-3-methyl-1H-pyrazolo[4,3-d]pyrimidine-5,7(4H,6H)dione] | 5880 nM
CCn1c(=O)[nH]c2c(C)nn(CC)c2c1=O [Example 4, 1-Ethyl-3-methyl-6ethyl-1H-pyrazolo[4,3-d]pyrimidine-5,7-[4H,6H]dione] | 1040 nM and 1520 nM
CCCn1c(=O)[nH]c2c(C)nn(CC)c2c1=O [Example 5, 1H-1-Ethyl-3-methyl-6-propyl-pyrazolo[4,3-d]pyrimidine-5,7-[4H,6H]dione] | 458 nM and 992 nM and 378 nM and 401 nM

These compounds were tested on Type 1 Phosphodiesterase (assay: PDE inhibition, Type 1 phosphodiesterase, cardiac muscle). Conditions: 1 × 10^-4 M.
Format: biochemical
Procedure: (§1) Phosphodiesterase activity was measured as described previously (Weishaar, P. E., Quade, M., Boyd, D., Schenden, J., Mark, S. S., Kaplan, H. R., Drug Devel. Res., 3:517-534, 1983), in a reaction medium containing 40 mM Tris-HCl (pH 8.0), 5 mM MgCl and 4 mM 2-mercaptoethanol. Unless otherwise noted, the concentration of substrate (^3 H-cyclic AMP or ^3 H-cyclic GMP) was 1.0 μM. All agents examined were dissolved in dimethyl sulfoxide (DMSO). Final concentration of the reaction medium was either 2.5% (cardiac and platelet studies) or 1.25% (smooth muscle studies). This concentration of DMSO produced an approximately 10% inhibition of enzyme activity. […] Three to four such concentration-response curves were generated for each agent, generally using different enzyme preparations for each concentration-response.

Compound | % Inhibition of 3H-cAMP Hydrolysis, Type 1 Phosphodiesterase | % Inhibition of 3H-cGMP Hydrolysis, Type 1 Phosphodiesterase
CCn1nc(C)c2[nH]c(=O)[nH]c(=O)c21 [Example 3, 1-Ethyl-3-methyl-1H-pyrazolo[4,3-d]pyrimidine-5,7(4H,6H)dione] | B (36-55% inhibition at 1 × 10^-5 M) | B (36-55% inhibition at 1 × 10^-5 M)
CCn1c(=O)[nH]c2c(C)nn(CC)c2c1=O [Example 4, 1-Ethyl-3-methyl-6ethyl-1H-pyrazolo[4,3-d]pyrimidine-5,7-[4H,6H]dione] | A (56-100% inhibition at 1 × 10^-5 M) | A (56-100% inhibition at 1 × 10^-5 M)
CCCn1c(=O)[nH]c2c(C)nn(CC)c2c1=O [Example 5, 1H-1-Ethyl-3-methyl-6-propyl-pyrazolo[4,3-d]pyrimidine-5,7-[4H,6H]dione] | A (56-100% inhibition at 1 × 10^-5 M) | A (56-100% inhibition at 1 × 10^-5 M)

The compounds below were run against T2, Type 2 Phosphodiesterase (Cavia porcellus, UniProt A0A286XUV5) (assay: PDE inhibition, Type 2 phosphodiesterase, cardiac muscle). Conditions: 1 × 10^-4 M, read-out: % Inhibition of 3H-cGMP Hydrolysis, Type 2 Phosphodiesterase.
T2 construct: from tissue
T2 sequence (A0A286XUV5 22-936): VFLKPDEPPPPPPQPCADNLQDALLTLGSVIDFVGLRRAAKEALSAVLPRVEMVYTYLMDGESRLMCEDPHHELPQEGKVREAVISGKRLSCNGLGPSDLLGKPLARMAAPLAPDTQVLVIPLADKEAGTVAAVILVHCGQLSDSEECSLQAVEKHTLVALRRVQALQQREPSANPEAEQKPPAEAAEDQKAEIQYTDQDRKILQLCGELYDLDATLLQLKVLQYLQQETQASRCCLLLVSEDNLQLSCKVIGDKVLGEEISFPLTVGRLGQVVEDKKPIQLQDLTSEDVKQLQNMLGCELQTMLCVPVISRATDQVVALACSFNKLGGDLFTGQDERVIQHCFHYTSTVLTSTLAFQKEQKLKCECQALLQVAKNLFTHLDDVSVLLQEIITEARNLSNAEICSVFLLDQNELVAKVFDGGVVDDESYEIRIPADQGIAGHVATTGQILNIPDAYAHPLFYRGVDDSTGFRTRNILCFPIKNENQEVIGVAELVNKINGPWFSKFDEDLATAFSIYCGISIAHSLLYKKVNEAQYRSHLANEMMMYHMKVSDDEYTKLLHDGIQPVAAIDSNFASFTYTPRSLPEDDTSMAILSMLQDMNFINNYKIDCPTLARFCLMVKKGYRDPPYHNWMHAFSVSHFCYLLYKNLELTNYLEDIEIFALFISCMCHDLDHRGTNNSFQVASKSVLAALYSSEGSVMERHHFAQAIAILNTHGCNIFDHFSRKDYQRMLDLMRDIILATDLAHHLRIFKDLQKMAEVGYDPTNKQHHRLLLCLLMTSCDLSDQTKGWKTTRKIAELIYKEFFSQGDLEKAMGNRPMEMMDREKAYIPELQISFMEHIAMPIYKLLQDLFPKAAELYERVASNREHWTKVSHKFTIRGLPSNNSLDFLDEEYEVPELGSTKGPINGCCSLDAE
Format: biochemical
Set-up: inhibition: dose or concentration left out as unconfirmed
Procedure: as §1

Compound | inhibition at 100 µM [%]
CCn1nc(C)c2[nH]c(=O)[nH]c(=O)c21 [Example 3, 1-Ethyl-3-methyl-1H-pyrazolo[4,3-d]pyrimidine-5,7(4H,6H)dione] | 36 to 55
CCn1c(=O)[nH]c2c(C)nn(CC)c2c1=O [Example 4, 1-Ethyl-3-methyl-6ethyl-1H-pyrazolo[4,3-d]pyrimidine-5,7-[4H,6H]dione] | 56 to 100
CCCn1c(=O)[nH]c2c(C)nn(CC)c2c1=O [Example 5, 1H-1-Ethyl-3-methyl-6-propyl-pyrazolo[4,3-d]pyrimidine-5,7-[4H,6H]dione] | 56 to 100

Same assay, conditions: read-out: % Inhibition of 3H-cAMP Hydrolysis, Type 2 Phosphodiesterase

Compound | inhibition [%]
CCn1nc(C)c2[nH]c(=O)[nH]c(=O)c21 [Example 3, 1-Ethyl-3-methyl-1H-pyrazolo[4,3-d]pyrimidine-5,7(4H,6H)dione] | 36 to 55
CCn1c(=O)[nH]c2c(C)nn(CC)c2c1=O [Example 4, 1-Ethyl-3-methyl-6ethyl-1H-pyrazolo[4,3-d]pyrimidine-5,7-[4H,6H]dione] | 56 to 100
CCCn1c(=O)[nH]c2c(C)nn(CC)c2c1=O [Example 5, 1H-1-Ethyl-3-methyl-6-propyl-pyrazolo[4,3-d]pyrimidine-5,7-[4H,6H]dione] | 56 to 100

What follows are compounds tested on Type 3 Phosphodiesterase (assay: PDE inhibition, Type 3 phosphodiesterase, cardiac muscle). Conditions: 1 × 10^-4 M.
Format: biochemical
Procedure: as §1

Compound | % Inhibition of 3H-cAMP Hydrolysis, Type 3 Phosphodiesterase
CCn1nc(C)c2[nH]c(=O)[nH]c(=O)c21 [Example 3, 1-Ethyl-3-methyl-1H-pyrazolo[4,3-d]pyrimidine-5,7(4H,6H)dione] | A (56-100% inhibition at 1 × 10^-5 M)
CCn1c(=O)[nH]c2c(C)nn(CC)c2c1=O [Example 4, 1-Ethyl-3-methyl-6ethyl-1H-pyrazolo[4,3-d]pyrimidine-5,7-[4H,6H]dione] | A (56-100% inhibition at 1 × 10^-5 M)
CCCn1c(=O)[nH]c2c(C)nn(CC)c2c1=O [Example 5, 1H-1-Ethyl-3-methyl-6-propyl-pyrazolo[4,3-d]pyrimidine-5,7-[4H,6H]dione] | B (36-55% inhibition at 1 × 10^-5 M)

What follows are compounds tested on histamine (assay: Bronchodilator test (BCA), histamine spasmogen, guinea pigs). Conditions: 50 mg/kg.
Format: in vivo, Hartley Guinea Pigs
Set-up: key: Active
From the text: The compounds of this invention may be determined to have antiallergy activity by a standard laboratory means employing the bronchodilator test (BCA) readily accepted as a standard for antiallergy activity, which is described in Siegmund, H. O., et al (J. Pharmacol. and Exptl., 90:254, 1949 and Herxheimer, H., J. Physiol., 117: 252-255, 1952). Thus, antiallergy activity was found for compounds of this invention by this BCA test using Hartley Guinea Pigs by the procedures as described below.
Naive (BCA) pigs are exposed to spasmogen for ten minutes by means of a De Vilbiss number 40 nebulizer positioned at the back of a closed, six unit plexiglas chamger (19×12.5×9"). Air flow is adjusted to give a pressure of 10 lbs/in; six animals per treatment are averaged, and the mean value for compound treated animals is compared to that for animals treated with vehicle. […]
The spasmogen may be acetylcholine chloride (0.3%), histamine (0.1%), methacholine chloride (Mecholyl) (0.1%) or serotonin creatinine sulfate. Each nebulizer dispenses 0.2 cc/minute.

Compound | BCA Results, Ratings
CCn1nc(C)c2[nH]c(=O)[nH]c(=O)c21 [Example 3, 1-Ethyl-3-methyl-1H-pyrazolo[4,3-d]pyrimidine-5,7(4H,6H)dione] | A
CCn1c(=O)[nH]c2c(C)nn(CC)c2c1=O [Example 4, 1-Ethyl-3-methyl-6ethyl-1H-pyrazolo[4,3-d]pyrimidine-5,7-[4H,6H]dione] | A
CCCn1c(=O)[nH]c2c(C)nn(CC)c2c1=O [Example 5, 1H-1-Ethyl-3-methyl-6-propyl-pyrazolo[4,3-d]pyrimidine-5,7-[4H,6H]dione] | A
